# Data as given in patent US10681908B2, “Molecules having pesticidal utility, and intermediates, compositions, and processes, related thereto” (Dow AgroSciences LLC, priority 2016, dated 2020).
# Tests used:
# Assay type in all cases: in vivo
# [1] = test system: Cabbage Looper (Trichoplusia ni, TRIPNI); test: Bioassay on Cabbage Looper (CL), 128-well diet tray assay; conditions: 168 h, 50 μg/cm^2 on artificial diet, second instar larvae, five to seven days, 25° C., read-out: CL % Control (or Mortality) rating
# In short: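 Percent mortality, averaged over eight wells, scored after five to seven days at 25° C. under 14:10 light-dark. Each well held 1–5 second-instar larvae on artificial diet treated with 50 μg/cm^2 test molecule applied in 90:10 acetone-water and dried.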
# [2] = test system: Yellow Fever Mosquito (Aedes aegypti, AEDSAE); conditions: about 1 day-old larvae, 3 days, room temperature, scored on mortality
# Experimental: Example C: Bioassays on Yellow Fever Mosqurro (Aedes aegypti, AEDSAE) (“YFM”)
# Certain molecules disclosed in this document were tested against YFM using procedures described in the following paragraph. In the reporting of the results, the “GPA & YFM Rating Table” was used (See Table Section).
# Master plates containing 400 μg of a molecule dissolved in 100 μL of dimethyl sulfoxide (DMSO) (equivalent to a 4000 ppm solution) are used. A master plate of assembled molecules contains 15 μL per well. To this plate, 135 μL of a 90:10 water:acetone mixture is added to each well. A robot (Biomek® NXP Laboratory Automation Workstation) is programmed to dispense 15 μL aspirations from the master plate into an empty 96-well shallow plate (“daughter” plate). There are 6 reps (“daughter” plates) created per master. The created daughter plates are then immediately infested with YFM larvae.
# The day before plates are to be treated, mosquito eggs are placed in Millipore water containing liver powder to begin hatching (4 g. into 400 mL). After the daughter plates are created using the robot, they are infested with 220 μL of the liver powder/larval mosquito mixture (about 1 day-old larvae). After plates are infested with mosquito larvae, a non-evaporative lid is used to cover the plate to reduce drying. Plates are held at room temperature for 3 days prior to grading. After 3 days, each well is observed and scored based on mortality. The results are indicated in the table entitled “Table ABC: Biological Results” (See Table Section).
# [3] = test system: Beet Armyworm (Spodoptera exigua, LAPHEG); test: Bioassay on Beet Armyworm (BAW), 128-well diet tray assay; conditions: 168 h, 50 μg/cm^2 on artificial diet, second instar larvae, five to seven days, 25° C., read-out: BAW % Control (or Mortality) rating
# In short: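 Mortality of second-instar larvae (one to five per well) was scored after five to seven days at 25 °C under 14:10 light-dark and averaged across eight wells. Each well's diet had received 50 μg/cm^2 test molecule from a 90:10 acetone-water solution, allowed to dry before infestation.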
Compound,mortality at 50 µg/cm2 [1] [%],YFM % Control (or Mortality) rating [2],mortality at 50 µg/cm2 [3] [%]
"C[C@H](C[S+]([O-])CC(F)(F)F)NC(=O)c1ccc(/C(F)=C/C(c2ccc(Cl)c(Cl)c2)C(F)(F)F)cc1C(F)(F)F (stereo partly drawn) [F28, 4-((Z)-3-(3,4-Dichlorophenyl)-1,4,4,4-tetrafluorobut-1-en-1-yl)-N-((2R)-1-((2,2,2-trifluoroethyl)sulfinyl)propan-2-yl)-2-(trifluoromethyl)benzamide]",50 to 100,B (More than 0-Less than 80),50 to 100
"C[C@H](CS(=O)(=O)CC(F)(F)F)NC(=O)c1ccc(/C(F)=C/C(c2cc(F)c(F)c(Cl)c2)C(F)(F)F)cc1C(F)(F)F (stereo partly drawn) [F103, 4-((Z)-3-(3-Chloro-4,5-difluorophenyl)-1,4,4,4-tetrafluorobut-1-en-1-yl)-N—((R)-1-((2,2,2-trifluoroethyl)sulfonyl)propan-2-yl)-2-(trifluoromethyl)benzamide]",50 to 100,A (80-100),50 to 100
"C[C@H](CS(=O)(=O)CC(F)(F)F)NC(=O)c1ccc(/C(F)=C/C(c2cc(Cl)c(Cl)c(Cl)c2)C(F)(F)F)c2ccccc12 (stereo partly drawn) [PF1, 4-((Z)-1,4,4,4-Tetrafluoro-3-(3,4,5-trichlorophenyl)but-1-en-1-yl)-N—((R)-1-((2,2,2-trifluoroethyl)sulfonyl)propan-2-yl)-1-naphthamide]",50 to 100,A (80-100),50 to 100
"C[C@H](CSCC(F)(F)F)NC(=O)c1ccc(/C(F)=C/C(c2cc(Br)cc(Br)c2)C(F)(F)F)cc1C(F)(F)F (stereo partly drawn) [F30, 4-((Z)-3-(3,5-Dibromophenyl)-1,4,4,4-tetrafluorobut-1-en-1-yl)-N—((R)-1-((2,2,2-trifluoroethyl)thio)propan-2-yl)-2-(trifluoromethyl)benzamide]",50 to 100,A (80-100),50 to 100
"C[C@H](C[S+]([O-])CC(F)(F)F)NC(=O)c1ccc(/C(F)=C/C(c2cc(Cl)c(Br)c(Cl)c2)C(F)(F)F)cc1C(F)(F)F (stereo partly drawn) [F26, 4-((Z)-3-(4-Bromo-3,5-dichlorophenyl)-1,4,4,4-tetrafluorobut-1-en-1-yl)-N-((2R)-1-((2,2,2-trifluoroethyl)sulfinyl)propan-2-yl)-2-(trifluoromethyl)benzamide]",50 to 100,A (80-100),50 to 100
"C[C@H](CSCC(F)(F)F)NC(=O)c1ccc(/C(F)=C/C(c2ccc(Cl)c(Cl)c2)C(F)(F)F)cc1C(F)(F)F (stereo partly drawn) [F20, 4-((Z)-3-(3,4-Dichlorophenyl)-1,4,4,4-tetrafluorobut-1-en-1-yl)-N—((R)-1-((2,2,2-trifluoroethyl)thio)propan-2-yl)-2-(trifluoromethyl)benzamide]",50 to 100,D (No activity noticed in this bioassay),50 to 100
"C[C@H](C[S+]([O-])CC(F)(F)F)NC(=O)c1ccc(/C(F)=C/C(c2cc(Cl)c(F)c(Cl)c2)C(F)(F)F)cc1C(F)(F)F (stereo partly drawn) [F37, 4-((Z)-3-(3,5-Dichloro-4-fluorophenyl)-1,4,4,4-tetrafluorobut-1-en-1-yl)-N-((2R)-1-((2,2,2-trifluoroethyl)sulfinyl)propan-2-yl)-2-(trifluoromethyl)benzamide]",50 to 100,A (80-100),50 to 100
"Cc1cc(C(/C=C(\F)c2ccc(C(=O)N[C@H](C)CS(=O)(=O)CC(F)(F)F)c(C(F)(F)F)c2)C(F)(F)F)cc(Cl)c1Cl (stereo partly drawn) [F78, 4-((Z)-3-(3,4-Dichloro-5-methylphenyl)-1,4,4,4-tetrafluorobut-1-en-1-yl)-N—((R)-1-((2,2,2-trifluoroethyl)sulfonyl)propan-2-yl)-2-(trifluoromethyl)benzamide]",50 to 100,B (More than 0-Less than 80),50 to 100
"CCCC(F)(F)c1cc(Cl)cc(C(/C=C(\F)c2ccc(C(=O)N[C@H](C)CS(=O)(=O)CC(F)(F)F)c(C(F)(F)F)c2)C(F)(F)F)c1 (stereo partly drawn) [F143, 4-((Z)-3-(3-Chloro-5-(1,1-difluorobutyl)phenyl)-1,4,4,4-tetrafluorobut-1-en-1-yl)-N—((R)-1-((2,2,2-trifluoroethyl)sulfonyl)propan-2-yl)-2-(trifluoromethyl)benzamide]",50 to 100,D (No activity noticed in this bioassay),50 to 100
"C[C@H](C[S+]([O-])CC(F)(F)F)NC(=O)c1ccc(/C(F)=C/C(c2cc(Cl)cc(Cl)c2)C(F)(F)F)cc1C(F)(F)F (stereo partly drawn) [F27, 4-((Z)-3-(3,5-Dichlorophenyl)-1,4,4,4-tetrafluorobut-1-en-1-yl)-N-((2R)-1-((2,2,2-trifluoroethyl)sulfinyl)propan-2-yl)-2-(trifluoromethyl)benzamide]",50 to 100,A (80-100),50 to 100
"O=C(NCCSC(F)(F)F)c1ccc(/C(F)=C/C(c2cc(Cl)c(Cl)c(Cl)c2)C(F)(F)F)cc1C(F)(F)F (stereo not drawn) [F92, (Z)-4-(1,4,4,4-tetrafluoro-3-(3,4,5-trichlorophenyl)but-1-en-1-yl)-2-(trifluoromethyl)-N-(2-((trifluoromethyl)thio)ethyl)benzamide]",50 to 100,B (More than 0-Less than 80),50 to 100
"C[C@H](C[S+]([O-])CC(F)(F)F)NC(=O)c1ccc(/C(F)=C/C(c2cc(Br)c(Cl)c(Br)c2)C(F)(F)F)cc1C(F)(F)F (stereo partly drawn) [F23, 4-((Z)-3-(3,5-Dibromo-4-chlorophenyl)-1,4,4,4-tetrafluorobut-1-en-1-yl)-N-((2R)-1-((2,2,2-trifluoroethyl)sulfinyl)propan-2-yl)-2-(trifluoromethyl)benzamide]",50 to 100,A (80-100),50 to 100
"C[C@H](CS(=O)(=O)CC(F)(F)F)NC(=O)c1ccc(/C(F)=C/C(c2ccc(Cl)c(Cl)c2)C(F)(F)F)cc1C(F)(F)F (stereo partly drawn) [F18, 4-((Z)-3-(3,4-Dichlorophenyl)-1,4,4,4-tetrafluorobut-1-en-1-yl)-N—((R)-1-((2,2,2-trifluoroethyl)sulfonyl)propan-2-yl)-2-(trifluoromethyl)benzamide]",50 to 100,A (80-100),50 to 100
C[C@H](CS(=O)(=O)CC(F)(F)F)NC(=O)c1ccc(/C(F)=C/C(c2ccc(C(F)(F)F)c(Cl)c2)C(F)(F)F)cc1C(F)(F)F (stereo partly drawn) [F91],50 to 100,D (No activity noticed in this bioassay),50 to 100
"C[C@H](CS(=O)(=O)CC(F)(F)F)NC(=O)c1ccc(/C(F)=C/C(c2cc(Cl)c(Br)c(Cl)c2)C(F)(F)F)cc1C(F)(F)F (stereo partly drawn) [F25, 4-((Z)-3-(4-Bromo-3,5-dichlorophenyl)-1,4,4,4-tetrafluorobut-1-en-1-yl)-N—((R)-1-((2,2,2-trifluoroethyl)sulfonyl)propan-2-yl)-2-(trifluoromethyl)benzamide]",50 to 100,A (80-100),50 to 100
"C[C@H](C[S+]([O-])CCF)NC(=O)c1ccc(/C(F)=C/C(c2cc(Cl)c(Cl)c(Cl)c2)C(F)(F)F)cc1C(F)(F)F (stereo partly drawn) [F99, N-((2R)-1-((2-Fluoroethyl)sulfinyl)propan-2-yl)-4-((Z)-1,4,4,4-tetrafluoro-3-(3,4,5-trichlorophenyl)but-1-en-1-yl)-2-(trifluoromethyl)benzamide]",50 to 100,A (80-100),50 to 100
"CCS(=O)(=O)C[C@@H](C)NC(=O)c1ccc(/C(F)=C/C(c2cc(C)c(Cl)c(C)c2)C(F)(F)F)cc1C(F)(F)F (stereo partly drawn) [F53, 4-((Z)-3-(4-Chloro-3,5-dimethylphenyl)-1,4,4,4-tetrafluorobut-1-en-1-yl)-N—((R)-1-(ethylsulfonyl)propan-2-yl)-2-(trifluoromethyl)benzamide]",50 to 100,D (No activity noticed in this bioassay),50 to 100
"C[C@H](CSCC(F)(F)F)NC(=O)c1ccc(/C(F)=C/C(c2cc(Cl)c(F)c(Cl)c2)C(F)(F)F)cc1C(F)(F)F (stereo partly drawn) [F36, 4-((Z)-3-(3,5-Dichloro-4-fluorophenyl)-1,4,4,4-tetrafluorobut-1-en-1-yl)-N—((R)-1-((2,2,2-trifluoroethyl)thio)propan-2-yl)-2-(trifluoromethyl)benzamide]",50 to 100,A (80-100),50 to 100
